Assay results reported in BindingDB's records for doi:10.1016/j.chembiol.2014.09.011 (Astrazeneca R&D, 2014).

Tests used:
Experiment in all cases: AMPD Enzymatic Activity Assay
Conditions in all cases: pH 7.4
[1] = molecular target: T1, AMP deaminase 3 (Rattus norvegicus, UniProt O09178)
T1 sequence (O09178 whole entry): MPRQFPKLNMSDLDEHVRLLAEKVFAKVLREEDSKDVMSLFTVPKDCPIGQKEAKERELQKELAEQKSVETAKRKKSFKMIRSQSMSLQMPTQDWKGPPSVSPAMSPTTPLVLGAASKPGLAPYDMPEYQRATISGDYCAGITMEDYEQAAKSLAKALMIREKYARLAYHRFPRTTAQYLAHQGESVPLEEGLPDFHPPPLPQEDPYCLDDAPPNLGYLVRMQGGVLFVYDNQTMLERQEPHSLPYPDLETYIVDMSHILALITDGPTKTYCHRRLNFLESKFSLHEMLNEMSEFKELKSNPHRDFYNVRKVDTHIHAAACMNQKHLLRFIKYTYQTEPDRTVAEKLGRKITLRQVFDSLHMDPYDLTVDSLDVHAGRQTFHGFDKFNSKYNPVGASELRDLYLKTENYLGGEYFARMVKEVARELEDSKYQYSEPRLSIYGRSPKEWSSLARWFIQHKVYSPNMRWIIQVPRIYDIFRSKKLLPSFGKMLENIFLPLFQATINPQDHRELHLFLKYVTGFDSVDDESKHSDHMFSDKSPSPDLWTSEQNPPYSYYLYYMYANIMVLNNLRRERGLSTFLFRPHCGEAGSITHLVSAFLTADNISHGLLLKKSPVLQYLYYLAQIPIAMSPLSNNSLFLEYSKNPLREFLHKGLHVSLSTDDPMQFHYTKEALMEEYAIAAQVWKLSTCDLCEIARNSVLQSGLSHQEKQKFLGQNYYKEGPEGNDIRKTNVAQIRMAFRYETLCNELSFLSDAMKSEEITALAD
Method: (§1) AMPD1 was added to buffer A (50 mM HEPES, 150 mM KCl, 5 mM MgCl2, and 0.5 mMglutathione [pH 7.4]) to a concentration of 10 nM. A substrate mix consistingof 2mMNADPH, 6mMa-ketoglutarate, 8mMAMP, and 15 U GDH was prepared in buffer A. Substrate mix ([…]) was added to the plate, followed by centrifugation and incubation for 1 hr. Detection was by absorbance at 340 nm following the conversion of NADPH to NADP+. Recombinant AMPD enzyme activity assays were performed in a 384-well format using the same conditions as described above, except the assay volume was […] and the AMP concentration for the AMPD2 assay was 8 mM. Different AMPD enzyme concentrations were used to have linear reactions: hAMPD1 (4 nM), hAMPD2 (38 nM), hAMPD3 (1 nM), rAMPD1 (116 nM), rAMPD2 (53 nM), rAMPD3 (31 nM), and mAMPD1 (816 nM).

[2] = molecular target: T2, AMP deaminase 1 (Homo sapiens, UniProt P23109)
T2 sequence (P23109 whole entry): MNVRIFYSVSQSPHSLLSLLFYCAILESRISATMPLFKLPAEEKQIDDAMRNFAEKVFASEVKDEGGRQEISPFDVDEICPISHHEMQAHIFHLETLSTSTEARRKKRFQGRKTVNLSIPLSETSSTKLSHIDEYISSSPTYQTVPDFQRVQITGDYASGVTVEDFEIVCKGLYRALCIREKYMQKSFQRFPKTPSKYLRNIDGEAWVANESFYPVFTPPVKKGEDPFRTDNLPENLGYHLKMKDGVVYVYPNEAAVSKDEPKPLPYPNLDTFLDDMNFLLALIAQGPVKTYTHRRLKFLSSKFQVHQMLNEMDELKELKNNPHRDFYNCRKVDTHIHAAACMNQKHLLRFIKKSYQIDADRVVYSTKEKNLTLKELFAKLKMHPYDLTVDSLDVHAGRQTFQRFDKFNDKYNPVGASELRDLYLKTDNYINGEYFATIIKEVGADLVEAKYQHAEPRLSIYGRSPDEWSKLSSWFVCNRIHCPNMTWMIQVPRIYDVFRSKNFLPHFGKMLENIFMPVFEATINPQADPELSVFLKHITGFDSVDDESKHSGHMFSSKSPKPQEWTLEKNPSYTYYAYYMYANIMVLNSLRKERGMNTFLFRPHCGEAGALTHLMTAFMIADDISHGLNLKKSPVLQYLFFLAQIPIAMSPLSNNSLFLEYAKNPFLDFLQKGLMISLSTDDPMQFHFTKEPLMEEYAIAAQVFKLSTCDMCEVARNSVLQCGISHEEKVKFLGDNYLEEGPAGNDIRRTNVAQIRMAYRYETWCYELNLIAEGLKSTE
Method: as §1

[3] = molecular target: T3, AMP deaminase 1 (Rattus norvegicus, UniProt P10759)
T3 sequence (P10759 whole entry): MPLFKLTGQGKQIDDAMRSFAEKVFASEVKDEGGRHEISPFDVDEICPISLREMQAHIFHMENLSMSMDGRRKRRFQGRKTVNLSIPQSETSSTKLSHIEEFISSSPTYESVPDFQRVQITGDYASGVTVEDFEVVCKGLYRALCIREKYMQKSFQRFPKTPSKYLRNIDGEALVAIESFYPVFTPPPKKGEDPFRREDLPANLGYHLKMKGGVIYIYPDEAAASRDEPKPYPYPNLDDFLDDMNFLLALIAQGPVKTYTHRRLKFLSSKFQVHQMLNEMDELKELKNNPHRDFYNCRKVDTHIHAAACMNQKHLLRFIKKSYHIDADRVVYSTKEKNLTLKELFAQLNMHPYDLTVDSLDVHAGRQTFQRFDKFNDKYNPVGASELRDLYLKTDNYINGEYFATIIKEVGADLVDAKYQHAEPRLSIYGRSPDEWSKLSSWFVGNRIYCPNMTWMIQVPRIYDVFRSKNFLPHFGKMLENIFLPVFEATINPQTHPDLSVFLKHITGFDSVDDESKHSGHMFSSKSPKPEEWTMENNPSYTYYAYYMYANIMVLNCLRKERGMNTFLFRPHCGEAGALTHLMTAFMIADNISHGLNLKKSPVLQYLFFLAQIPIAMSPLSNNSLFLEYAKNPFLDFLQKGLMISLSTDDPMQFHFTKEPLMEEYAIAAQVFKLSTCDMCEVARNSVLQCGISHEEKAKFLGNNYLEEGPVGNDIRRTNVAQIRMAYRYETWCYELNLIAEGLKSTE
Method: as §1

Row | Structure (SMILES) | IC50 [1] [µM] | IC50 [2] [µM] | IC50 [3] [µM]
1 | C[C@@H](NCc1ccc(-c2ccc(C(=O)O)cn2)cc1)c1cccc2ccncc12 [6-[4-({[(1R)-1-(isoquinolin-8-yl)ethyl]amino}methyl)phenyl]pyridine-3-carboxylic acid (Compound 2)] | 44 | 9.2 | 5.8
2 | C[C@H](NCc1ccc(-c2ccc(C(=O)O)cn2)cc1)c1cccc2ccncc12 [6-[4-({[(1S)-1-(isoquinolin-8-yl)ethyl]amino}methyl)phenyl]pyridine-3-carboxylic acid (Compound 3)] | 0.4 | 0.038 | 0.027
